Columns and labels:
[1] = molecular target: T1, bromodomain-containing protein 4 (BRD4) (Homo sapiens, UniProt O60885); assay: BRD4 Western blot (degradation); format: cell-based; conditions: at 1 μM; VCaP cells, 16 h
T1 construct: VCaP cells were chased from ATCC and cultured in Dulbecco's Modified Eagle's Medium; host or cells: VCaP

p53 = assay: Western blot of HCT116 cells, p53 level; format: cell-based, human; conditions: Western blot (FIG. 2, FIG. 3)
MDM2 = molecular target: T2, MDM2 (Homo sapiens, UniProt Q00987); assay: Western blot of HCT116 cells, MDM2 level; format: cell-based; conditions: Western blot (FIG. 2, FIG. 3)
T2 construct: Western blot of HCT116 cells treated with chimeric molecules; endogenous in cells; host or cells: HCT116
T2 sequence (Q00987 whole entry): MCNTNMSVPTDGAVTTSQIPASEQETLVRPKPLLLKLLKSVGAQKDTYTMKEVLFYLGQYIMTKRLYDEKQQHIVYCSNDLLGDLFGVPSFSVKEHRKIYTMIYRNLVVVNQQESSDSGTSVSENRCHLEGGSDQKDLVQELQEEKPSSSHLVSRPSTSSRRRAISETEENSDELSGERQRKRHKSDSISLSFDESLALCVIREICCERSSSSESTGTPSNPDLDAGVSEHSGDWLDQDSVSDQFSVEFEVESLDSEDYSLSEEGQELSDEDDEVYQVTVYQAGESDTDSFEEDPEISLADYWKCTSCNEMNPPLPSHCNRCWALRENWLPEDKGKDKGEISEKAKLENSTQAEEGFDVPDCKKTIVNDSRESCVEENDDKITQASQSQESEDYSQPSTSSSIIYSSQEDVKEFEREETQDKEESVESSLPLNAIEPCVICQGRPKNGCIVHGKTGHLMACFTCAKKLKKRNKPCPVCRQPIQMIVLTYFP

[2] = system: p53^WT HCT-116 colon cancer cell lines; assay: Cell growth assay; format: cell-based, human; conditions: p53^WT HCT-116 (FIG. 4)
BRD4 = BRD4 (Homo sapiens, UniProt O60885); assay: Time course of BRD4 degradation in A549; format: cell-based; design: endogenous in cells; host or cells: A549; conditions: human lung cancer cell line A549 (FIG. 6)
[3] = molecular target: enhancer of zeste homolog 2 (EZH2) (Homo sapiens, UniProt Q15910); assay: EZH2 Western blot assay (degradation); format: cell-based; conditions: at 1 μM; 16 h
enhancer of zeste homolog 2 (EZH2), sequence (Q15910 whole entry): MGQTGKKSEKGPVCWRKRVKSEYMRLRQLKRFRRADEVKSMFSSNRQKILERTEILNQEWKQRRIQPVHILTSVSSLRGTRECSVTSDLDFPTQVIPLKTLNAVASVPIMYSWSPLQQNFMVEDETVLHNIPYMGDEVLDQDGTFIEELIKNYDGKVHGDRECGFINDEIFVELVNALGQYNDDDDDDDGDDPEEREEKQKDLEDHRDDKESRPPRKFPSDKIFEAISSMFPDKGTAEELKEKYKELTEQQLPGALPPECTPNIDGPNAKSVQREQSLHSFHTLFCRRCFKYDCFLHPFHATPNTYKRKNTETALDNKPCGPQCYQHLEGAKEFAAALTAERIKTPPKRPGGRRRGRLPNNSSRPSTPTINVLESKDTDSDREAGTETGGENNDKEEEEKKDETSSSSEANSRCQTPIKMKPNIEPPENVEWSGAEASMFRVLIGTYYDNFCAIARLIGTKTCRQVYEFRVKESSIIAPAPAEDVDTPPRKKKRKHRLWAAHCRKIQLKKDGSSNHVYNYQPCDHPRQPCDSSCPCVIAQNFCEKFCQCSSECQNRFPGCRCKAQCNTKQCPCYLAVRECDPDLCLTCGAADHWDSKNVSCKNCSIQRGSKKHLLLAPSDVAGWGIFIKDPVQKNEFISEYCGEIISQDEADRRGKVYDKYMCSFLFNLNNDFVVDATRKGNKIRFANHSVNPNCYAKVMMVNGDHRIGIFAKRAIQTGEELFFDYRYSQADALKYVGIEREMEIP
enhancer of zeste homolog 2 (EZH2), sequence (O75530 whole entry partner): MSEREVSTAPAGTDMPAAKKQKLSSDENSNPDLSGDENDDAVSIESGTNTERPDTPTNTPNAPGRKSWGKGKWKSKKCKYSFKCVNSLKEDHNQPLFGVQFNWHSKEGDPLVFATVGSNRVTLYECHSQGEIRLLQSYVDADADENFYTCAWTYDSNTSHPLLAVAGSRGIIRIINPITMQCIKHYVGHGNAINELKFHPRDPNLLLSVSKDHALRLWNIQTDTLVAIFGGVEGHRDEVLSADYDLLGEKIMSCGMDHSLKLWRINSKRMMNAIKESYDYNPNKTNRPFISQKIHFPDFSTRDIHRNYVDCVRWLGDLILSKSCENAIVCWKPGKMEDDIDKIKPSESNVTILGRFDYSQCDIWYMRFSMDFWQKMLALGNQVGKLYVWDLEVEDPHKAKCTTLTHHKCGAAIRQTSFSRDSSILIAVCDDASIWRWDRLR
enhancer of zeste homolog 2 (EZH2), sequence (Q15022 whole entry partner): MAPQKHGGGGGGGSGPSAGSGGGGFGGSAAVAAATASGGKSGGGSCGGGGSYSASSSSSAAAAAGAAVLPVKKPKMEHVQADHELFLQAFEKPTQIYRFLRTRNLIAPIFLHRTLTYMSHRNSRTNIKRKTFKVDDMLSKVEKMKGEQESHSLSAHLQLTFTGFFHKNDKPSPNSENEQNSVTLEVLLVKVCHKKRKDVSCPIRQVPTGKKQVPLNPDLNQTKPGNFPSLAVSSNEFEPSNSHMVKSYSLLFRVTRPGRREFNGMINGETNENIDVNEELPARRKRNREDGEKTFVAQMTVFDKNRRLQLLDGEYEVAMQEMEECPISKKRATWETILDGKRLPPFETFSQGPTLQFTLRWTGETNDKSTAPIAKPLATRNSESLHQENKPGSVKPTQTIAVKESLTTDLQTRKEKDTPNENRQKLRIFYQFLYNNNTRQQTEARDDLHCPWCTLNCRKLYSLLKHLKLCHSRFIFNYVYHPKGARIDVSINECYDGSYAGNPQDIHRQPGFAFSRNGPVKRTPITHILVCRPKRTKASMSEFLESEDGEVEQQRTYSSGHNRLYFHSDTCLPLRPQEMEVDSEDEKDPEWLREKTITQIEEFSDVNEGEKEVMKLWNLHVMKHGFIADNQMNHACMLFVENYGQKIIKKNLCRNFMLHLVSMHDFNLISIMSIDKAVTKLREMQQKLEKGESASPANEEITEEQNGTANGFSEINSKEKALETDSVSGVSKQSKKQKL
Procedure: The following biological assays were performed to evaluate the protein degradation in various cell types using representative compounds disclosed. The degradation of the following proteins were evaluated: bromodomain-containing protein 4 (BRD4), androgen receptor (AR), c-Myc, c-Jun N-terminal kinases (JNK), and enhancer of zeste homolog 2 (EZH2).
Cells were purchased from ATCC and cultured in Dulbecco's Modified Eagle's Medium (ATCC), supplemented with 10% FBS (ATCC) and Penicillin/Streptomycin (Life Technologies). […] Cells were harvested, and lysed in RIPA buffer (50 mM Tris pH8, 150 mM NaCl, 1% Tx-100, 0.1% SDS, 0.5% sodium deoxycholate) supplemented with protease and phosphatase inhibitors. Lysates were clarified at 16,000 g for 10 minutes, and protein concentration was determined. Equal amount of protein (20 μg) was subjected to SDS-PAGE analysis and followed by immunoblotting according to standard protocols.

Compound	Degradation activity BRD4 [1]	p53 level increase (p53)	MDM2 up-regulation (MDM2)	growth inhibition [2]	BRD4 degradation, time course (BRD4)	Degradation activity EZH2 [3]
COc1cc(C(=O)NCCOCCOCCOCCOCCNC(=O)C[C@@H]2N=C(c3ccc(Cl)cc3)c3c(sc(C)c3C)-n3c(C)nnc32)ccc1NC(=O)[C@@H]1N[C@@H](CC(C)(C)C)[C@](C#N)(c2ccc(Cl)cc2F)[C@H]1c1cccc(Cl)c1F [Compound A1893, (2R,3S,4R,5S)-3-(3-chloro-2-fluorophenyl)-4-(4-chloro-2-fluorophenyl)-N-{4-[(14-{2-[(9S)-7-(4-chlorophenyl)-4,5,13-trimethyl-3-thia-1,8,11,12-tetraazatricyclo[8.3.0.0^2,^6]-trideca-2(6),4,7,10,12-pentaen-9-yl]acetamido}-3,6,9,12-tetraoxatetradecan-1-yl)carbamoyl]-2-methoxyphenyl}-4-cyano-5-(2,2-dimethylpropyl)pyrrolidine-2-carboxamide]	C (larger than 50% degradation at 1 μM)	dose dependent p53 level increase	up-regulation of MDM2	very potent growth inhibition	BRD4 degradation	–
CCN(c1cc(-c2ccc(OCCOCCOCCOCCOCCOCCNC(=O)c3ccc(NC(=O)C4NC(CC(C)(C)C)C(C#N)(c5ccc(Cl)cc5F)C4c4cccc(Cl)c4F)c(OC)c3)cc2)cc(C(=O)NCc2c(C)cc(C)[nH]c2=O)c1C)C1CCOCC1 (stereo not shown) [Compound A2844, 3-(3-chloro-2-fluorophenyl)-4-(4-chloro-2-fluorophenyl)-4-cyano-N-[4-({1-[4-(3-{[(4,6-dimethyl-2-oxo-1,2-dihydropyridin-3-yl)methyl]carbamoyl}-5-[ethyl(oxan-4-yl)amino]-4-methylphenyl)phenyl]-1,4,7,10,13,16-hexaoxaoctadecan-18-yl}carbamoyl)-2-methoxyphenyl]-5-(2,2-dimethylpropyl)pyrrolidine-2-carboxamide]	–	–	–	–	–	A (0 to 25% degradation at 1 μM)
CCN(c1cc(-c2ccc(OCCOCCOCCOCCNC(=O)c3ccc(NC(=O)C4NC(CC(C)(C)C)C(C#N)(c5ccc(Cl)cc5F)C4c4cccc(Cl)c4F)c(OC)c3)cc2)cc(C(=O)NCc2c(C)cc(C)[nH]c2=O)c1C)C1CCOCC1 (stereo not shown) [Compound A2790, 3-(3-chloro-2-fluorophenyl)-4-(4-chloro-2-fluorophenyl)-4-cyano-N-[4-({1-[4-(3-{[(4,6-dimethyl-2-oxo-1,2-dihydropyridin-3-yl)methyl]carbamoyl}-5-[ethyl(oxan-4-yl)amino]-4-methylphenyl)phenyl]-1,4,7,10-tetraoxadodecan-12-yl}carbamoyl)-2-methoxyphenyl]-5-(2,2-dimethylpropyl)pyrrolidine-2-carboxamide]	–	–	–	–	–	A (0 to 25% degradation at 1 μM)

Reference: patent publication US12577255B2, “MDM2-based modulators of proteolysis and associated methods of use” (Arvinas Operations, Inc., priority 2015, dated 2026)
